# Results taken from PMC3866913 (Journal of medicinal chemistry, 2013).
# Read-outs that look alike come from different tables or passages of the source.
# Key:
# α7-nAChR [1] = molecular target: T1, α7-nAChR (Rattus norvegicus, UniProt Q05941); details: read-out: KD of radiotracer at α7-nAChR; cited from earlier work
# α7-nAChR [2] = molecular target: T2, α7-nAChR (Mus musculus, UniProt P49582); details: in vivo
# α2β2-nAChR = α2β2-nAChR (Rattus norvegicus, UniProt P12389+P12390); experiment: Heteromeric nAChR binding, transfected HEK293 membranes, [3H]epibatidine
# Sequence of α2β2-nAChR (P12389 28-511): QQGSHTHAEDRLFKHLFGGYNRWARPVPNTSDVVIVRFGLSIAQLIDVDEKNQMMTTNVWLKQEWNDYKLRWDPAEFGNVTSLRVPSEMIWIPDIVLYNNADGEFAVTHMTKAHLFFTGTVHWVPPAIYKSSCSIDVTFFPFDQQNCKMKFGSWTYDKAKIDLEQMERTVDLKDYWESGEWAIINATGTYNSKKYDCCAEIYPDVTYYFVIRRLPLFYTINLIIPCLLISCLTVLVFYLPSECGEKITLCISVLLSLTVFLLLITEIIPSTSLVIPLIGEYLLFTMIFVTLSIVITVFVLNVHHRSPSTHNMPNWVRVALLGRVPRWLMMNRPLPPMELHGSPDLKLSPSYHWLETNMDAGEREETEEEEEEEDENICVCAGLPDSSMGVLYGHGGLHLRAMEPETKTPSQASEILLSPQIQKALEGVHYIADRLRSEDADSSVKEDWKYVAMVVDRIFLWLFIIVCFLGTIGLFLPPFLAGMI
# Sequence of α2β2-nAChR (P12390 25-500): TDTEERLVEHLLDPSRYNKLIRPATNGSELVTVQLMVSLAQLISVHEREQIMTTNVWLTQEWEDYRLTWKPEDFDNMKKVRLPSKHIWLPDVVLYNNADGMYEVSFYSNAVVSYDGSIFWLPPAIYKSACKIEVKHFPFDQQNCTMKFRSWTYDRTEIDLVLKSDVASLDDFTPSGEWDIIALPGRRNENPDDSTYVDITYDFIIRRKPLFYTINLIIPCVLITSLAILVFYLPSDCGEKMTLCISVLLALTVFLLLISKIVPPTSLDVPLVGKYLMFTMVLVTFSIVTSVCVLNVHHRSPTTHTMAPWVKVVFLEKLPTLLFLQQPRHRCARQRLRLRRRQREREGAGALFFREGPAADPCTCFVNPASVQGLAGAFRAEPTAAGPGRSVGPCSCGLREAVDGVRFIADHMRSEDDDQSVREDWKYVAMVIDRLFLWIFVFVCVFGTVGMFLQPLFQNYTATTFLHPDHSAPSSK
# [3] = format: in vivo; details: mice, i.v.
# α7-nAChR [4] = molecular target: T2, α7-nAChR; set-up: species or system CD-1 mice; details: in vivo
# α7-nAChR [5] = details: read-out: α7-nAChR Ki, cited from earlier work
# α7-nAChR [6] = molecular target: T1, α7-nAChR; experiment: biochemical; format: binding; details: two independent assays, each in duplicate
# α7-nAChR [7] = molecular target: T2, α7-nAChR; experiment: Blocking of [18F]7a with non-α7-nAChR CNS drugs in CD-1 mice; format: in vivo; details: 2 mg/kg, s.c., 10 min before radiotracer, 90 min after tracer
# T2 sequence (P49582 23-502): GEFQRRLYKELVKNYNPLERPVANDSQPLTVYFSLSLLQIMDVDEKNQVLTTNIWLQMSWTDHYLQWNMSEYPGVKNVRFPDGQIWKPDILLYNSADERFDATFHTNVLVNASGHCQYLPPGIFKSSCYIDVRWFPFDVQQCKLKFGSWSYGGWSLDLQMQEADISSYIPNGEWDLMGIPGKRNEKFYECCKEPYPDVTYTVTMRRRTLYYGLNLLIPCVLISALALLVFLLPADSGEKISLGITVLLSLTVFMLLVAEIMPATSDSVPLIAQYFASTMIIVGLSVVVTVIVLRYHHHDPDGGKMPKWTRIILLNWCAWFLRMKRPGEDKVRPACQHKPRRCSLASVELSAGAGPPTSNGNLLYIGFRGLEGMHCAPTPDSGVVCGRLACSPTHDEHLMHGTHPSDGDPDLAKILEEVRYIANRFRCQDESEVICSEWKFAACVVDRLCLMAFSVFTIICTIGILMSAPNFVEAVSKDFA
# T1 sequence (Q05941 23-502): as the sequence (P49582 23-502) above, with T402A counted along it
compound,measurement,setting,value
[^125I]α-Bungarotoxin,Kd,α7-nAChR [1],0.7 nM
CN1CCC[C@H]1c1cccnc1 [nicotine],blockade of [18F]7a accumulation in mouse brain,α7-nAChR [2],"significant blockade in all regions, except the nAChR-poor cerebellum"
O=c1cccc2n1C[C@@H]1CNC[C@H]2C1 [cytisine],blockade of [18F]7a accumulation in mouse brain,α7-nAChR [2],insignificant reduction of radioactivity accumulation in all regions studied
"O=S1(=O)c2ccccc2-c2c(N3CCN4CCC3CC4)ccc(F)c21 [7e, 1-(1,4-Diazabicyclo[3.2.2]nonan-4-yl)-4-fluorodibenzo[b,d]thiophene 5,5-dioxide]",Ki,α2β2-nAChR,> 10000 nM
"O=S1(=O)c2ccc(F)cc2-c2ccc(N3CCN4CCC3CC4)cc21 [7c, 7-(1,4-Diazabicyclo[3.2.2]nonan-4-yl)-2-fluorodibenzo[b,d]thiophene 5,5-dioxide]",behavioral or locomotor activity changes,[3]; 0.2 mg/kg,Neither behavioral nor locomotor activity changes were observed
"O=S1(=O)c2ccccc2-c2ccc(N3CCN4CCC3CC4)cc21 [compound 5, 3-(1,4-diazabicyclo[3.2.2]nonan-4-yl)dibenzo[b,d]thiophene 5,5-dioxide]",blockade of [18F]7c accumulation in mouse brain,α7-nAChR [4],Dose dependent blockade
same,Ki,α7-nAChR [5],0.023 nM
"O=S1(=O)c2cc(N3CCN4CCC3CC4)ccc2-c2cccc(I)c21 [compound 14, 3-(1,4-Diazabicyclo[3.2.2]nonan-4-yl)-6-iododibenzo[b,d]thiophene 5,5-dioxide]",Ki,α7-nAChR [6],1.93 nM
O=C(Oc1ccc(Br)cc1)N1CCN2CCC1CC2 [compound 1],blockade of [18F]7a binding in mouse brain,α7-nAChR [4],dose dependent blockade in all regions studied
same,effect on accumulation of [18F]7a in mouse brain regions,α7-nAChR [7],reduced accumulation of radioactivity
same,Ki,α7-nAChR [5]; ref [58],22 nM
"O=S1(=O)c2cc(N3CCN4CCC3CC4)ccc2-c2cccc(F)c21 [7a, 3-(1,4-Diazabicyclo[3.2.2]nonan-4-yl)-6-fluorodibenzo[b,d]thiophene 5,5-dioxide]",Ki,"α2β2-nAChR; read-out: α2β2 Ki, stably transfected HEK293 cells, [3H]epibatidine 0.5 nM",> 10000 nM
same,behavioral or locomotor activity changes,[3]; 0.3 mg/kg,Neither behavioral nor locomotor activity changes were observed
"Cc1nccn1CC1CCc2c(c3ccccc3n2C)C1=O (centres unmarked) [ondansetron, Ondansetron]",effect on accumulation of [18F]7a in mouse brain regions,α7-nAChR [7],absence of blockade
